Experimental findings from US9326973B2, “Hepatitis C virus inhibitors” (priority 2012, dated 2016) are described below.

For this experiment, the system named is HCV replicon, genotype-1a variant with glutamine 30 changed to glutamate in the NS5A protein. In words: microbe, parasite or virus in culture. The experiment is classed as cell-based, HCV genotype 1a. The conditions noted are these: HCV replicon genotype 1a Q30E (Q→E) variant; test compound titrated with an NS5A-targeting compound (BMS-790052 fixed at 200 nM); ranking of synergist activity. The essentials: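 Synergy was assessed by combining several fixed amounts of an NS5A-targeting compound with a titration of the second compound of interest.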
Background: In antiviral work, replicon cells carry a viral genome segment that copies itself.

Take `COCC1(C(=O)N[C@H](c2nc(-c3ccc(-c4ccc(-c5c[nH]c([C@@H](NC(=O)C6(COC)CCCCO6)C(C)(C)C)n5)cc4)cc3)c[nH]2)C(C)(C)C)CCCCO1` (some centres unmarked) [Compound P-183]: the “Fold-Synergistic 1a (Q30E)” value is reported as above 100 fold.

With `CC(C)[C@H](NC(=O)[C@@]1(C)CCCCO1)c1nc(-c2ccc(-c3ccc(-c4c[nH]c([C@@H](NC(=O)[C@@]5(C)CCCCO5)C(C)C)n4)cc3)cc2)c[nH]1` [Compound P-184], the “Fold-Synergistic 1a (Q30E)” value is above 100 fold.

Take `O=C(N1CCC[C@H]1c1ncc(-c2ccc(-c3ccc(-c4cnc([C@@H]5CCCN5C(=O)C5(O)CCC(F)(F)CC5)[nH]4)cc3)cc2)[nH]1)C1(O)CCC(F)(F)CC1` [Compound P-185]: the “Fold-Synergistic 1a (Q30E)” value is given as above 100 fold.

Turning to `C[C@]1(C(=O)N2CCC[C@H]2c2ncc(-c3ccc(-c4ccc(-c5cnc([C@@H]6CCCN6C(=O)[C@@]6(C)CCC(F)(F)CO6)[nH]5)cc4)cc3)[nH]2)CCC(F)(F)CO1` [Compound P-186], the “Fold-Synergistic 1a (Q30E)” value is given as below 10 fold.

As for `CC1([C@H](NC(=O)[C@@]2(C)CCCCO2)c2nc(-c3ccc(-c4ccc(-c5c[nH]c([C@@H](NC(=O)[C@@]6(C)CCCCO6)C6(C)CC6)n5)cc4)cc3)c[nH]2)CC1` [Compound P-187], the “Fold-Synergistic 1a (Q30E)” value is given as above 100 fold.

As for `O=C(c1ccccc1)N1CCC[C@H]1c1ncc(-c2ccc(-c3ccc(-c4cnc([C@@H]5CCCN5C(=O)c5ccccc5)[nH]4)cc3)cc2)[nH]1` [Compound S-106], the “Fold-Synergistic 1a (Q30E)” value is on record as below 10 fold.

As to `O=C(Cc1ccccc1)N1CCC[C@H]1c1ncc(-c2ccc(-c3ccc(-c4cnc([C@@H]5CCCN5C(=O)Cc5ccccc5)[nH]4)cc3)cc2)[nH]1` [Compound S-107], the “Fold-Synergistic 1a (Q30E)” value is given as below 10 fold.

`CCC(=O)N1CCC[C@H]1c1ncc(-c2ccc(-c3ccc(-c4cnc([C@@H]5CCCN5C(=O)CC)[nH]4)cc3)cc2)[nH]1` [Compound S-108]: the “Fold-Synergistic 1a (Q30E)” value is below 10 fold.

`O=C(C1CC1)N1CCC[C@H]1c1ncc(-c2ccc(-c3ccc(-c4cnc([C@@H]5CCCN5C(=O)C5CC5)[nH]4)cc3)cc2)[nH]1` [Compound S-109]: the “Fold-Synergistic 1a (Q30E)” value is reported as below 10 fold.

With `O=C(CC1CC1)N1CCC[C@H]1c1ncc(-c2ccc(-c3ccc(-c4cnc([C@@H]5CCCN5C(=O)CC5CC5)[nH]4)cc3)cc2)[nH]1` [Compound S-110], the “Fold-Synergistic 1a (Q30E)” value was below 10 fold.

Take `O=C([C@H]1CCCO1)N1CCC[C@H]1c1ncc(-c2ccc(-c3ccc(-c4cnc([C@@H]5CCCN5C(=O)[C@H]5CCCO5)[nH]4)cc3)cc2)[nH]1` [Compound S-111]: the “Fold-Synergistic 1a (Q30E)” value is given as below 10 fold.

For the molecule `CC(=O)N1CCC[C@H]1c1ncc(-c2ccc(-c3ccc(-c4cnc([C@@H]5CCCN5C(C)=O)[nH]4)cc3)cc2)[nH]1` [Compound S-113], the “Fold-Synergistic 1a (Q30E)” value was below 10 fold.

`O=C(c1ccccc1Oc1ccccc1)N1CCC[C@H]1c1ncc(-c2ccc(-c3ccc(-c4cnc([C@@H]5CCCN5C(=O)c5ccccc5Oc5ccccc5)[nH]4)cc3)cc2)[nH]1` [Compound S-114]: the “Fold-Synergistic 1a (Q30E)” value is below 10 fold.

For `COC(=O)c1ccccc1C(=O)N1CCC[C@H]1c1ncc(-c2ccc(-c3ccc(-c4cnc([C@@H]5CCCN5C(=O)c5ccccc5C(=O)OC)[nH]4)cc3)cc2)[nH]1` [Compound S-115], the “Fold-Synergistic 1a (Q30E)” value is listed as below 10 fold.

With `O=C(c1cccc(Oc2ccccc2)c1)N1CCC[C@H]1c1ncc(-c2ccc(-c3ccc(-c4cnc([C@@H]5CCCN5C(=O)c5cccc(Oc6ccccc6)c5)[nH]4)cc3)cc2)[nH]1` [Compound S-116], the “Fold-Synergistic 1a (Q30E)” value is reported as below 10 fold.

For `O=C(c1ccc(-c2ccccc2)cc1)N1CCC[C@H]1c1ncc(-c2ccc(-c3ccc(-c4cnc([C@@H]5CCCN5C(=O)c5ccc(-c6ccccc6)cc5)[nH]4)cc3)cc2)[nH]1` [Compound S-117], the “Fold-Synergistic 1a (Q30E)” value is on record as above 10 fold.

As to `Cc1onc(-c2ccccc2)c1C(=O)N1CCC[C@H]1c1ncc(-c2ccc(-c3ccc(-c4cnc([C@@H]5CCCN5C(=O)c5c(-c6ccccc6)noc5C)[nH]4)cc3)cc2)[nH]1` [Compound S-118], the “Fold-Synergistic 1a (Q30E)” value is reported as below 10 fold.

`O=C(c1cccc2ccccc12)N1CCC[C@H]1c1ncc(-c2ccc(-c3ccc(-c4cnc([C@@H]5CCCN5C(=O)c5cccc6ccccc56)[nH]4)cc3)cc2)[nH]1` [Compound S-119]: the “Fold-Synergistic 1a (Q30E)” value is above 10 fold.

As to `O=C(c1cc2ccccc2[nH]1)N1CCC[C@H]1c1ncc(-c2ccc(-c3ccc(-c4cnc([C@@H]5CCCN5C(=O)c5cc6ccccc6[nH]5)[nH]4)cc3)cc2)[nH]1` [Compound S-120], the “Fold-Synergistic 1a (Q30E)” value is below 10 fold.

With `O=C(c1ccc2c(c1)OCO2)N1CCC[C@H]1c1ncc(-c2ccc(-c3ccc(-c4cnc([C@@H]5CCCN5C(=O)c5ccc6c(c5)OCO6)[nH]4)cc3)cc2)[nH]1` [Compound S-121], the “Fold-Synergistic 1a (Q30E)” value is reported as below 10 fold.

`O=C(c1cc2ccccc2o1)N1CCC[C@H]1c1ncc(-c2ccc(-c3ccc(-c4cnc([C@@H]5CCCN5C(=O)c5cc6ccccc6o5)[nH]4)cc3)cc2)[nH]1` [Compound S-122]: the “Fold-Synergistic 1a (Q30E)” value is listed as above 10 fold.

With `O=C(c1ccc2ccccc2n1)N1CCC[C@H]1c1ncc(-c2ccc(-c3ccc(-c4cnc([C@@H]5CCCN5C(=O)c5ccc6ccccc6n5)[nH]4)cc3)cc2)[nH]1` [Compound S-123], the “Fold-Synergistic 1a (Q30E)” value was above 100 fold.

With `O=C(c1cnc2ccccc2c1)N1CCC[C@H]1c1ncc(-c2ccc(-c3ccc(-c4cnc([C@@H]5CCCN5C(=O)c5cnc6ccccc6c5)[nH]4)cc3)cc2)[nH]1` [Compound S-124], the “Fold-Synergistic 1a (Q30E)” value is above 10 fold.

Turning to `O=C(c1ccnc2ccccc12)N1CCC[C@H]1c1ncc(-c2ccc(-c3ccc(-c4cnc([C@@H]5CCCN5C(=O)c5ccnc6ccccc56)[nH]4)cc3)cc2)[nH]1` [Compound S-125], the “Fold-Synergistic 1a (Q30E)” value is on record as below 10 fold.

On to `O=C(c1cnc2ccccc2n1)N1CCC[C@H]1c1ncc(-c2ccc(-c3ccc(-c4cnc([C@@H]5CCCN5C(=O)c5cnc6ccccc6n5)[nH]4)cc3)cc2)[nH]1` [Compound S-126], for which the “Fold-Synergistic 1a (Q30E)” value is above 100 fold.

For `N#Cc1ccccc1C(=O)N1CCC[C@H]1c1ncc(-c2ccc(-c3ccc(-c4cnc([C@@H]5CCCN5C(=O)c5ccccc5C#N)[nH]4)cc3)cc2)[nH]1` [Compound S-127], the “Fold-Synergistic 1a (Q30E)” value is listed as below 10 fold.

Consider `O=C(c1cccc(-c2ccccc2)c1)N1CCC[C@H]1c1ncc(-c2ccc(-c3ccc(-c4cnc([C@@H]5CCCN5C(=O)c5cccc(-c6ccccc6)c5)[nH]4)cc3)cc2)[nH]1` [Compound S-128], for which the “Fold-Synergistic 1a (Q30E)” value is given as above 10 fold.

In the case of `Cc1nn(-c2ccccc2)nc1C(=O)N1CCC[C@H]1c1ncc(-c2ccc(-c3ccc(-c4cnc([C@@H]5CCCN5C(=O)c5nn(-c6ccccc6)nc5C)[nH]4)cc3)cc2)[nH]1` [Compound S-129], the “Fold-Synergistic 1a (Q30E)” value is above 100 fold.

Take `O=C(c1csc(-c2cccnc2)n1)N1CCC[C@H]1c1ncc(-c2ccc(-c3ccc(-c4cnc([C@@H]5CCCN5C(=O)c5csc(-c6cccnc6)n5)[nH]4)cc3)cc2)[nH]1` [Compound S-130]: the “Fold-Synergistic 1a (Q30E)” value was above 10 fold.

For `Cc1cc(C(=O)N2CCC[C@H]2c2ncc(-c3ccc(-c4ccc(-c5cnc([C@@H]6CCCN6C(=O)c6cc(C)nc(Cl)c6)[nH]5)cc4)cc3)[nH]2)cc(Cl)n1` [Compound S-131], the “Fold-Synergistic 1a (Q30E)” value is reported as above 10 fold.

For `Cc1nn(C)c2ncc(C(=O)N3CCC[C@H]3c3ncc(-c4ccc(-c5ccc(-c6cnc([C@@H]7CCCN7C(=O)c7cnc8c(c(C)nn8C)c7Cl)[nH]6)cc5)cc4)[nH]3)c(Cl)c12` [Compound S-132], the “Fold-Synergistic 1a (Q30E)” value is below 10 fold.

Take `O=C(c1cnccc1C(F)(F)F)N1CCC[C@H]1c1ncc(-c2ccc(-c3ccc(-c4cnc([C@@H]5CCCN5C(=O)c5cnccc5C(F)(F)F)[nH]4)cc3)cc2)[nH]1` [Compound S-134]: the “Fold-Synergistic 1a (Q30E)” value is listed as below 10 fold.

As for `O=C(c1cnc2n(c1=O)CCS2)N1CCC[C@H]1c1ncc(-c2ccc(-c3ccc(-c4cnc([C@@H]5CCCN5C(=O)c5cnc6n(c5=O)CCS6)[nH]4)cc3)cc2)[nH]1` [Compound S-135], the “Fold-Synergistic 1a (Q30E)” value was below 10 fold.

Take `O=C(c1ccc2ncsc2c1)N1CCC[C@H]1c1ncc(-c2ccc(-c3ccc(-c4cnc([C@@H]5CCCN5C(=O)c5ccc6ncsc6c5)[nH]4)cc3)cc2)[nH]1` [Compound S-136]: the “Fold-Synergistic 1a (Q30E)” value was below 10 fold.

Turning to `O=C(c1ccc(-c2ccccc2)o1)N1CCC[C@H]1c1ncc(-c2ccc(-c3ccc(-c4cnc([C@@H]5CCCN5C(=O)c5ccc(-c6ccccc6)o5)[nH]4)cc3)cc2)[nH]1` [Compound S-137], the “Fold-Synergistic 1a (Q30E)” value is recorded as above 10 fold.

As for `O=C(c1csc(-c2ccccc2)n1)N1CCC[C@H]1c1ncc(-c2ccc(-c3ccc(-c4cnc([C@@H]5CCCN5C(=O)c5csc(-c6ccccc6)n5)[nH]4)cc3)cc2)[nH]1` [Compound S-138], the “Fold-Synergistic 1a (Q30E)” value is on record as above 100 fold.

Regarding `O=C(c1cccc2c1OCC2)N1CCC[C@H]1c1ncc(-c2ccc(-c3ccc(-c4cnc([C@@H]5CCCN5C(=O)c5cccc6c5OCC6)[nH]4)cc3)cc2)[nH]1` [Compound S-139], the “Fold-Synergistic 1a (Q30E)” value is above 10 fold.

Turning to `O=C(c1ccc(C(F)(F)F)nc1)N1CCC[C@H]1c1ncc(-c2ccc(-c3ccc(-c4cnc([C@@H]5CCCN5C(=O)c5ccc(C(F)(F)F)nc5)[nH]4)cc3)cc2)[nH]1` [Compound S-140], the “Fold-Synergistic 1a (Q30E)” value was above 10 fold.

In the case of `O=C(c1nc2ccccc2s1)N1CCC[C@H]1c1ncc(-c2ccc(-c3ccc(-c4cnc([C@@H]5CCCN5C(=O)c5nc6ccccc6s5)[nH]4)cc3)cc2)[nH]1` [Compound S-141], the “Fold-Synergistic 1a (Q30E)” value was above 10 fold.

With `Cn1cc(C(=O)N2CCC[C@H]2c2ncc(-c3ccc(-c4ccc(-c5cnc([C@@H]6CCCN6C(=O)c6cn(C)c7ccccc67)[nH]5)cc4)cc3)[nH]2)c2ccccc21` [Compound S-142], the “Fold-Synergistic 1a (Q30E)” value is on record as above 10 fold.

Regarding `O=C(CC(c1ccccc1)c1ccccc1)N1CCC[C@H]1c1ncc(-c2ccc(-c3ccc(-c4cnc([C@@H]5CCCN5C(=O)CC(c5ccccc5)c5ccccc5)[nH]4)cc3)cc2)[nH]1` [Compound S-143], the “Fold-Synergistic 1a (Q30E)” value is above 10 fold.
